Values quoted from earlier work in US20250073182A1, “LOW DOSAGE GOSSYPOL CON[…] RODENTS” (priority 2023, published 2025).

Tests used:
female rats = female rats (Gadelha et al. 2014; Lin, et al., 1985)
[1] = system: ovarian follicles of female mice; details: in vitro, all stages of development (Luz et al. 2018; Ding et al. 2021)
[2] = gossypol in cottonseed meal at 15 mg/kg per day for 4 weeks
[3] = low doses, after 4 weeks (Nadakavukaren et al. 1979)

Compound: Cc1cc2c(C(C)C)c(O)c(O)c(C=O)c2c(O)c1-c1c(C)cc2c(C(C)C)c(O)c(O)c(C=O)c2c1O (atropisomer, axis not shown) [gossypol]
- epididymal and accessory sex glands weights (male rats; daily 30 mg/kg for 6 weeks or 7.5 and 15 mg/kg for 12 weeks (Chang et al. 1982)): reduced
- fertility (male rats; [2]): reduced
- toxicity (male rats; [2]): absent
- effects at high doses in rats (male rats; high doses (Romualdo et al. 2002; Gadelha et al. 2014)): reduced food intake, anorexia, and hepatic toxicity
- offspring produced (male rats; [3]): no offspring were produced
- spermatozoa with defects (male rats; [3]): over 50%
- pregnancy rates (male rats; male rats given ≥10 mg/kg/d, bred to fertile females, as early as 6 weeks (Randel et al. 1992)): significantly lower
- fertility after withdrawal of treatment (male rats; rats (Chang et al. 1982)): recovery in fertility
- estrous cycle (female rats): longer estrous cycle
- seminal vesicle weight (male mice; 20 or 40 mg/kg body weight, 3 weeks (Singh and Rath, 1990)): significant decrease
- sperm counts (male mice; two mouse strains, 10 and 20 mg/kg BW orally for 4 weeks (Hunt and Mittwoch 1984)): reduced
- number of atretic follicles [1]: increased
- number of viable follicles [1]: significantly decreased
